Test results reported in US11077163B2, “Peptide for treating ocular diseases and composition for treating ocular diseases comprising same” (GemVax & KAEL CO., LTD., priority 2015, dated 2021).

Assays:
Assay type in all cases: in vivo, Brown Norway rats
[1] = tested on: laser-induced choroidal neovascularization (CNV); assay: CNV thickness by optical coherence tomography (OCT) in laser-induced CNV animal model; details: subcutaneous once a day
Excerpt: Brown Norway rats were anesthetized, and pupils of the eyes were dilated using 0.5% phenylephrine (pupillary dilatation). The target rats having the dilated pupils of the eyes were irradiated with a 577 nm laser (577 nm, diode, 10 μm, 0.05 seconds) 6 to 8 times per eye to cause neovascularization in the choroid. Upon laser irradiation, the eyes were covered with a cover glass, and the rupture of Bruch's membranes was confirmed from the fact that bubbles occurred during irradiation with lasers using a slit lamp delivery system. In a laser-induced CNV […] model, the rats were randomized to experimental groups in which the peptide pep1 prepared by the method disclosed in Example 1 was administered at three doses of 0.1, 1, and 10 nM, and the control (vehicle) in which pep1 was not administered, and a drug was subcutaneously administered to the rats once a day for a period of time starting from the day before 3 days of laser irradiation to 2 weeks after the laser irradiation. To compare the CNV activities between various groups, a Kruskal-Wallis test was used. […] The groups in which pep1 was administered and the control complied with the experimental groups disclosed in Example 2, and the thicknesses of all lesions in each of the groups were measured to check whether there was a difference in CNV thicknesses between the groups.

[2] = tested on: laser-induced choroidal neovascularization (CNV); assay: Angiographic leakage in the choroid by fluorescein angiography (FAG) in laser-induced CNV animal model; details: subcutaneous once a day, FAG at 2 weeks after laser
Excerpt: Brown Norway rats were anesthetized, and pupils of the eyes were dilated using 0.5% phenylephrine (pupillary dilatation). The target rats having the dilated pupils of the eyes were irradiated with a 577 nm laser (577 nm, diode, 10 μm, 0.05 seconds) 6 to 8 times per eye to cause neovascularization in the choroid. Upon laser irradiation, the eyes were covered with a cover glass, and the rupture of Bruch's membranes was confirmed from the fact that bubbles occurred during irradiation with lasers using a slit lamp delivery system. In a laser-induced CNV […] model, the rats were randomized to experimental groups in which the peptide pep1 prepared by the method disclosed in Example 1 was administered at three doses of 0.1, 1, and 10 nM, and the control (vehicle) in which pep1 was not administered, and a drug was subcutaneously administered to the rats once a day for a period of time starting from the day before 3 days of laser irradiation to 2 weeks after the laser irradiation. To compare the CNV activities between various groups, a Kruskal-Wallis test was used. In this case, the comparison between two groups was performed using a Mann-Whitney U test. A p value was considered to be statistically significant when the p value was less than 0.05. After CNV was induced with lasers, the rats in the groups in which pep1 was administered and the rats in the control were anesthetized after the elapse of 2 weeks, and a contrast medium was intraperitoneally injected at a dose of 0.1 mL (10% fluorescein disodium salt). Levels of angiographic leakage in the choroid between the control and the groups in which pep1 was administered were compared using fluorescein angiography (FAG). The groups in which pep1 was administered and the control complied with the experimental groups disclosed in Example 2, and the leakage levels at all lesions in each of the groups were measured to check whether there was a difference in angiographic leakage in the choroid between the groups. […]

[3] = tested on: laser-induced choroidal neovascularization (CNV); assay: CNV area by isolectin staining of retinal pigment epithelium-choroid-sclera tissues in laser-induced CNV animal model; details: subcutaneous once a day, isolectin-stained area at 2 weeks after laser
Excerpt: Brown Norway rats were anesthetized, and pupils of the eyes were dilated using 0.5% phenylephrine (pupillary dilatation). The target rats having the dilated pupils of the eyes were irradiated with a 577 nm laser (577 nm, diode, 10 μm, 0.05 seconds) 6 to 8 times per eye to cause neovascularization in the choroid. Upon laser irradiation, the eyes were covered with a cover glass, and the rupture of Bruch's membranes was confirmed from the fact that bubbles occurred during irradiation with lasers using a slit lamp delivery system. […] An area of tissues stained with isolectin specific to vascular endothelial cells was measured to determine CNV areas in the control and the groups in which pep1 was administered. The groups in which pep1 was administered and the control complied with the experimental groups disclosed in Example 2, and the thicknesses of all lesions in each of the groups were measured to check whether there was a difference in CNV areas between the groups.

EARPALLTSRLRFIPK (listed as Homo sapiens) [pep1, telomerase-derived peptide of 16 amino acids, location [611-626] on human telomerase]
CNV thickness compared to the control ([1]; all groups 0.1, 1 and 10 nM, from 3 days before to 2 weeks after laser irradiation, OCT at 2 weeks): statistically significantly reduced
CNV thickness compared to the control ([1]; group at 1 nM, OCT at 2 weeks after laser): most drastically reduced
angiographic leakage level compared to the control ([2]; all groups 0.1, 1 and 10 nM): reduced
ratio of lesions with Grade 2B (clinically severe leakage level) compared to the control ([2]; all groups 0.1, 1 and 10 nM): reduced
ratio of lesions with Grade 2B (clinically severe leakage level) compared to the control ([2]; groups at 1 and 10 nM): drastically reduced
CNV area compared to the control ([3]; all groups 0.1, 1 and 10 nM): statistically significantly reduced
CNV area compared to the control ([3]; group at 1 nM): most drastically reduced
